Patent US8906931B1, “9-[4-(3-chloro-2-fluoro-phenylamino-7-methoxy-quinazoline-6-yloxy]-1,4-diaza-spiro[5.5]undecane-5-one dimaleate, use thereof as a medicament and method for the production thereof” (Boehringer Ingelheim International GmbH, priority 2011, dated 2014)

Test: Water sorption test (DVS, hygroscopicity)
Assay type: physicochemical
Settings: humidity range of 10-90% r.h.
Procedure: By low hygroscopicity is meant, within the scope of the present invention, that in sorption experiments on the compound of formula (I) a water uptake of less than 1% is observed in the humidity range of 10-90% investigated.
A DVS-1 made by Surface Measurement Systems (=SMS) is used to test the hygroscopic characteristics: the following humidity profiles are used: 10-90% r.h. in 10% steps, recording both a sorption and a desorption profile, typical weights: 10-20 mg

Structure (SMILES): COc1cc2ncnc(Nc3cccc(Cl)c3F)c2cc1O[C@H]1CC[C@@]2(CC1)NCCNC2=O.O=C(O)/C=C\C(=O)O.O=C(O)/C=C\C(=O)O [(I), (trans)-9-[4-(3-chloro-2-fluoro-phenylamino)-7-methoxy-quinazolin-6-yloxy]-1,4-diaza-spiro[5.5]undecan-5-one dimaleic acid compound]
- water uptake in sorption experiments: less than 1%
